≈ marks a conversion by molar mass, not a printed value. Read-outs that look alike come from different tables or passages of the source.
Assays:
[1] = Release of small molecules from polymeric cyclodextrin-containing LbL films in phosphate buffer (fluorescence spectroscopy); assay type: physicochemical; conditions: 20 bilayers; for Release Rate: from poly A3/poly(BCD) films, phosphate buffer pH 7.4
Method: Release profiles were investigated by monitoring the release of the small molecule using a fluorimeter and the degradation of non-radiolabeled films. For drug release experiments, 20 bilayer films were constructed using carboxymethylbeta-cyclodextrin polymer:drug conjugate solution. The deposition solutions were prepared by combining 25 μM carboxymethylbeta-cyclodextrin polymers solution in 0.1 M sodium acetate buffer (1 Mn=8,000), with the various small molecules. After fabrication, each twenty bilayer film was immersed in 10 mL phosphate buffer solution (pH 7.4, 137 mM NaCl, 2.7 mM KCl, 10 mM Na2HPO4). A 1 mL sample was extracted at various time points and analyzed via fluorescence spectroscopy. Degradation vials were tightly capped between sample extractions to prevent evaporation of the buffer solution. Raw spectrum data were converted to micrograms (μg) of drug released using a calibration curve for a given molecule at a defined emission wavelength.
Poly(BCD)-prodan inclusion complexes were made by dissolving prodan in poly(BCD) as described for poly(BCD)-ciprofloxacin inclusion complexes in Example 3. (Poly 1/poly(BCD)-prodan)20 films were constructed by layer-by-layer deposition and prodan release studies were conducted as described in Example 1.
Formation of poly(BCD): drug inclusion complexes and film construction were achieved by methods as described in Examples 1-3; release studies were performed as described in Example 4. Solubility values and complexation coefficients were determined and/or calculated according to previously published methods (Brewster et al. 2007. “Cyclodextrins as pharmaceutical solubilizers.” Advanced Drug Delivery. 59: 645-666).

[2] = Complexation coefficients of drugs with cyclodextrins; assay type: physicochemical; conditions: calculated from solubility values
[3] = Solubility of drugs in water and complexed with cyclodextrins; assay type: physicochemical
[4] = Release of 14C-dextran sulfate from LbL films in phosphate buffer (scintillation counting); assay type: physicochemical; conditions: films built with poly A3, 20 bilayers, phosphate buffer pH 7.4; approximately linear kinetics
Method: Release profiles were investigated by monitoring the release of ^14C-dextran sulfate and the degradation of non-radiolabeled films. For drug release experiments, 20 bilayer radiolabeled films were constructed using ^14C-dextran sulfate solution. The radiolabled deposition solutions were prepared by combining ^14C-dextran sulfate (1.5 mCi/g, Mn=8,000), unlabeled dextran sulfate (Mn=8,000), and 100 mM acetate buffer to yield a total concentration of dextran sulfate (unlabeled plus labeled) to 2 mg/mL (1 μCi/mL ^14C). After fabrication, each twenty bilayer film was immersed in 30 mL phosphate buffer solution (pH 7.4, 137 mM NaCl, 2.7 mM KCl, 10 mM Na2HPO4). A 1 mL sample was extracted at various time points and analyzed via scintillation counting. Scintillation counting was performed on a Tri-carb liquid scintillation counter (Model U2200) and the amount of radiolabel in each sample vial was measured using ^14C protocol. Degradation vials were tightly capped between sample extractions to prevent evaporation of the buffer solution. Raw data (disintegrations per minute, DPM) were converted to micrograms (μg) of drug released using the conversion factor 2.2×10^6 DPM=1 μCi, the specific radioactivity of the drug, and knowledge of the ratio of total drug to labeled drug in the deposition solution.

[5] = test system: cyclooxygenase (COX); experiment: Inhibition of cyclooxygenase by film release buffer in A549 cells, prostaglandin E2 concentration measured; assay type: cell-based, human; conditions: A549 cells exposed to aliquots of release buffer, buffer replaced every 24 hours
From the text: To determine if polymeric cyclodextrin alters drug activity, the inhibition of cyclooxygenase (COX) by diclofenac was investigated. COX is the rate limiting enzyme in the production of prostaglandins, which are important in homeostasis and inflammatory pathways (T. D. Warner et al., Proceedings of the National Academy of Sciences of the United States of America 1999, 96, 9966). A549 human lung carcinoma cells were exposed to aliquots of release buffer, and prostaglandin E2 concentration was measured. In the experiment, the release buffer was replaced every 24 hours, so that time points measured the activity of the drug released during each specific 24 hour period. […] The approach here is a utilization of a charged polymeric carrier capable of facile reversible complexation with the drug of choice in alternation with a degradable polyion. Charged cyclodextrin polymers were used for the trapping of cyclodextrin-drug complexes in stable, surface eroding films capable of drug release within the cyclodextrin carrier without altering activity. […] This technology can be applied to nanomedicine coatings for applications in personalized medicine, transdermal delivery, medical devices, nanoparticulate carriers, prosthetic implants, as well as small molecules for imaging, agriculture, and basic scientific research.

[6] = drug complexed with cyclodextrins, aqueous with cosolvent or surfactant or cyclodextrin, read-out: St, solubility complexed with cyclodextrins

Release Rate [1] [ng/h] | Kc, complexation coefficient [2] [M⁻¹] | Compound | solubility [3, 6] [µg/mL] | further results
4 | 4930 | CC(C(=O)O)c1ccc(-c2ccccc2)c(F)c1 (stereo not drawn) [Flurbiprofen] | 540 (≈ 2210 µM) | S0, solubility in water ([3]; in water): 8 µg/mL
– | – | dextran sulfate | – | time span over which dextran sulfate continued to be released [4]: at least 8 days
– | – | O=C(O)c1cn(C2CC2)c2cc(N3CCNCC3)c(F)cc2c1=O [Ciprofloxacin] | – | time through which ciprofloxacin continued to be released (latest time point tested) ([1]; poly 1/poly(BCD)-ciprofloxacin films, phosphate buffer): ≥ 69.3 h
1 | 4300 | COc1ccc2cc([C@H](C)C(=O)O)ccc2c1 [Naproxen] | – | –

Compound | Release Rate [1] [ng/h] | Kc, complexation coefficient [2] [M⁻¹] | solubility [3, 6] [µg/mL] | further results
O=C(O)Cc1ccccc1Nc1c(Cl)cccc1Cl [Diclofenac] | 5 | – | 2800 (≈ 9450 µM) | activity of released drug: COX inhibition, suppressed prostaglandin production [5]: highly active; solubility ([3]; in water, read-out: S0, solubility in water): 2 µg/mL (≈ 6.75 µM)

Reference: patent US9198875B2, “Controlled delivery of bioactive agents from decomposable films” (Massachusetts Institute of Technology, priority 2008, dated 2015)
